One data set concerns the target 5-HT2A receptor (Homo sapiens, UniProt P28223). Conditions: read-out: 5-HT2A Ki; cited from earlier work.
The next data set deals with OcINMT. Conditions: cited from earlier work.
The subject of another data set is MAO-A. Conditions: rat liver mitochondria; result in words; cited from earlier work.
The test system of data set [1] is RmNMT. The class given is biochemical, Rhinella marina. Conditions: for Higher conversion of substrate by RmNMT compared with OcINMT: from Table 1 activities.
Data set [2] concerns RmNMT. The class given is biochemical, Rhinella marina. Conditions: 30 °C, 10 min.
Another data set relates to HsINMT. Conditions: read-out: Km (HsINMT); cited from earlier work.
The conditions of data set [3]: radiolabeled compound injected into rabbits; result in words; cited from earlier work.
The subject of a further data set is mice. The note with it: result in words; cited from earlier work.
A further data set addresses T1, 5-HT1A receptor (Homo sapiens, UniProt P08908).
T1 sequence (P08908 1-422): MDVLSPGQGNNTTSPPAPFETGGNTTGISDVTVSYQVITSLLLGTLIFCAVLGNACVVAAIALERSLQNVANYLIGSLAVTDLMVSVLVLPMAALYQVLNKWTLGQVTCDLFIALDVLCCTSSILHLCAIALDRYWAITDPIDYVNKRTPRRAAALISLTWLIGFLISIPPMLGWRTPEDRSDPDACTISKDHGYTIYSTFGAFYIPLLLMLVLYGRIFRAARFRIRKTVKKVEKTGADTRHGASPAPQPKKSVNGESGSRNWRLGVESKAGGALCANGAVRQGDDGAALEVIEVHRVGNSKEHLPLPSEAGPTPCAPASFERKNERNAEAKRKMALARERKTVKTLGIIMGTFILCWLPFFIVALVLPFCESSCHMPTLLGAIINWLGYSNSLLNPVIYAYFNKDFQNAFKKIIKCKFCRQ
The data set is described as follows: Radioligand competition assay. The class given is binding. The note with it: 0.5 nM [3H]8-hydroxy-DPAT; mean ± SD of three independent replicates.

Data set [4] is described as follows: In vitro metabolic stability in human liver microsomes. Conditions: 5 μM compound, 400 μg/ml HLM, 37 °C, timepoints 0, 30, 60 min; result in words. The data set is classed as in vitro ADME. (Liver microsomes are vesicles of endoplasmic reticulum, rich in cytochrome P450 enzymes.)
Where [5] appears, read: standard in vitro assay, 1 h, 37 °C, mean ± SD, triplicate.

We go through nine compounds from paper PMC10570959 (The Journal of Biological Chemistry, 2023).

Sequence of 5-HT2A receptor (P28223 whole entry): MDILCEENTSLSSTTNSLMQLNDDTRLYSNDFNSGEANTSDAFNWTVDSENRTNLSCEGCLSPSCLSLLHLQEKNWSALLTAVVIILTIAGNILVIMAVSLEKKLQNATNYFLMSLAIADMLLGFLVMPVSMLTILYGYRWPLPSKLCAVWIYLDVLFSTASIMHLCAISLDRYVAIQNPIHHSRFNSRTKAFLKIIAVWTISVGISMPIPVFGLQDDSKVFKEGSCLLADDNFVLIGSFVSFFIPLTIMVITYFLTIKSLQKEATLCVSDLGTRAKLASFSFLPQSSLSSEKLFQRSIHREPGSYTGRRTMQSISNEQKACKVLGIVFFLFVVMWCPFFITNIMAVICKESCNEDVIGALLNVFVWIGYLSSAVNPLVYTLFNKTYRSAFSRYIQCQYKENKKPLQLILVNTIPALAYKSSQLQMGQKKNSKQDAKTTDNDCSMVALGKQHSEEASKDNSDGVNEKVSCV

Regarding `CN(C)CCc1c[nH]c2ccccc12` [DMT, N,N-dimethyltryptamine], the Ki – broadly, a measure of affinity in units of concentration, obtained from inhibition or displacement – on 5-HT2A receptor was 1200 nM. Also, in the data set with OcINMT (result in words), the “Inhibition of OcINMT by its product” value was “noncompetitively inhibited”. In addition, the “Activity as MAO-A substrate” value with MAO-A is “could not be detected”.

For `CN(C)CCc1c[nH]c2cc(F)cc(O)c12` [6-fluoro-psilocin], on 5-HT2A receptor, the Ki was 13 nM.

With `CNCCc1c[nH]c2ccccc12` [N-Methyltryptamine], the “Higher conversion of substrate by RmNMT compared with OcINMT” value with RmNMT [1] amounted to 27 fold. Also, in the data set with RmNMT [1] (setting [5]), the “RmNMT enzyme activity, product DMT” value amounted to 10.44 ± 0.46. Further, the “Activity as MAO-A substrate” value in the data set with MAO-A is “substrates of MAO-A”.

With `NCCc1c[nH]c2ccccc12` [Tryptamine], the “Higher conversion of substrate by RmNMT compared with OcINMT” value in the data set with RmNMT [1] was found to be 18 fold. Further, the “RmNMT enzyme activity, product N-Methyltryptamine” value in the data set on RmNMT [1] (setting [5]) worked out at 3.51 ± 0.079. Besides, the “kcat (RmNMT)” value in the data set on RmNMT [2] came out at 0.00052 s⁻¹. Moreover, the figures for the Km with OcINMT (read-out: Km (OcINMT)) and in the data set with HsINMT were 270 µM and 2920 µM, respectively. For the same compound, the “Persistence in brain tissue” value in [3] is recorded as “disappeared within minutes”. Moreover, the “Activity as MAO-A substrate” value with MAO-A is reported as “substrates of MAO-A”.

As for `NCCc1c[nH]c2ccc(O)cc12` [5-Hydroxytryptamine (serotonin), 5-Hydroxytryptamine], the “RmNMT enzyme activity, product Bufotenin” value in the data set with RmNMT [1] stood at 4.65 ± 0.112.

In the case of `COc1ccc2c(CCN(C)C)c[nH]c2c1` [6-methoxy-DMT], at 5-HT2A receptor, the Ki was 7300 nM.

For the compound `NCCc1c[nH]c2cccc(O)c12` [4-Hydroxytryptamine], the Head-twitch response result in the data set on mice is “does not induce head-twitch response”.

On to `Cc1[nH]c2ccccc2c1CCN` [2-Methyltryptamine], for which, at 5-HT1A receptor, the “5-HT1A Ki” value was “micromolar levels”. Besides, the “Metabolic stability during exposure to human liver microsome” value in data set [4] is listed as “showed greater stability”.

Turning to `CN(C)CCc1c[nH]c2ccc(O)cc12` [Bufotenin, 5-hydroxy-DMT], the “Metabolic stability during exposure to human liver microsome” value in [4] is reported as “degraded faster than psilocin”.
